Reference: patent US10065948B2, “Histone deacetylase inhibitors and compositions and methods of use thereof” (CHDI Foundation, Inc., priority 2014, dated 2018)
One block for each compound: values may come before it.

How the values were obtained:
[1] = system: cellular histone deacetylase enzymatic activity in Jurkat E6-1 cells; experiment: Inhibition of cellular HDAC activity, Boc-Lys(Tfa)-AMC substrate (Cell Lys-TFA); type: cell-based
Procedure: The potency of the compounds is quantified by measuring the cellular histone deacetylase enzymatic activity using the fluorogenic substrate, Boc-Lys(Tfa)-AMC. After penetration in Jurkat E6-1 cells, the substrate is deacetylated to Boc-Lys-AMC. After cell lysis and cleavage by trypsin, the fluorophore AMC is released from the deacetylated substrate only. The fluorescence of the sample is directly related to the histone deacetylase activity in the sample.
Jurkat E6.1 cells are cultured according to standard cell culture protocols in Jurkat E6.1 Growth Media (RPMI without phenol red, 10% FBS, 10 mM HEPES, and 1 mM Sodium Pyruvate). Jurkat E6.1 cells are counted using a Coulter Counter and resuspended in Jurkat E6.1 growth media at a concentration of 75,000 cells/35 μL. 35 μL or 75,000 cells is seeded into Greiner microtitre assay plates. The plates are then incubated at 37° C. and 5% CO2 while other assay components are being prepared.
Stocks of 70 μL aliquots of the 10 mM compound in DMSO are prepared and stored at −20° C. From one stock aliquot of each compound to be tested and the reference compound, a 16-point serial dilution is prepared according to Table 1 using a 125 μL 16-channel Matrix multi-channel pipette.
2 μL (200×) of each diluted solution and each control (full activity: 100% DMSO alone or full inhibition 1 mM) is stamped into V-bottom polypropylene 384-well compound plates using either the Bravo, Janus, or 12.5 μL 16-channel Matrix multi-channel pipette. Each well with the 200× compound solution is diluted 1:20 by the addition of 38 μL Jurkat assay buffer+DMSO (9.5% DMSO, RPMI without phenol red, 0.09% FBS, 9 mM Hepes, and 0.9 mM Sodium Pyruvate equilibrated to room temperature)
5× (500 μM) substrate is prepared just prior to the addition to the assay. The 5× substrate is prepared by diluting a 100 mM Boc-Lys(Tfa)-AMC in DMSO solution 1:200 by adding it drop-wise to Jurkat assay medium (RPMI without phenol red, 0.1% FBS, 10 mM Hepes, and 1 mM Sodium Pyruvate equilibrated to 37° C.) while vortexing at slow speed to prevent precipitation.
10 mL of 3× lysis buffer is prepared with 8.8 ml of 3× stock lysis buffer (50 mM Tris-HCl, pH 8.0, 137 mM NaCl, 2.7 mM KCl, 1 mM MgCl2, 1% Nonidet P40 Substitute equilibrated to room temperature) and 1.2 mL of 3 mg/mL Trypsin equilibrated to room temperature.
5 μL of each solution of 1:20 diluted compound from above is transferred to the Greiner microtitre assay plates with 75,000 cells/well using the Bravo. Cells are then incubated for 2 hours at 37° C. and 5% CO2. […] The cells are then incubated for 3 hours at 37° C. and 5% CO2. Next, 25 μL of 3× lysis buffer is added to each well using either the 125 μL 16 channel pipette or the Bravo. The assay plate is then incubated overnight (15-16 hours) at 37° C. and 5% CO2. The following day, the plates are shaken on an orbital shaker for 1 minute at 900 rpm. Finally the top read fluorescence (Excitation: 355 nm, Emission: 460 nm) is measured using PerkinElmer EnVision.

[2] = system: cellular histone deacetylase activity (Lys-Ac); experiment: Inhibition of cellular HDAC activity (Cell Lys-Ac); type: cell-based; details: Lys-Ac substrate
[3] = Homo sapiens, Jurkat E6.1, Lys-TFA substrate

SMILES: Cc1cc(F)ccc1-n1ncc2c1C[C@](C(=O)NO)(c1cccc(F)c1C)C2 [Example 22, (S)-5-(3-Fluoro-2-methylphenyl)-1-(4-fluoro-2-methylphenyl)-N-hydroxy-1,4,5,6-tetrahydrocyclopenta[c]pyrazole-5-carboxamide]
IC50 [1, 3]: 0.011 µM
IC50 [2]: > 50 µM

SMILES: Cc1cc(F)ccc1-n1cc2c(n1)C[C@](C(=O)NO)(c1cccc(F)c1C)C2 [Example 23, (S)-5-(3-fluoro-2-methylphenyl)-2-(4-fluoro-2-methylphenyl)-N-hydroxy-2,4,5,6-tetrahydrocyclopenta[c]pyrazole-5-carboxamide]
IC50 [1, 3]: 0.134 µM
IC50 [2]: > 50 µM

SMILES: Cc1c(F)cccc1C1(C(=O)NO)CCc2nn(CC(F)(F)F)cc2C1 (stereo not shown) [Example 35, 5-(3-Fluoro-2-methylphenyl)-N-hydroxy-1-(2,2,2-trifluoroethyl)-4,5,6,7-tetrahydro-1H-indazole-5-carboxamide and 5-(3-fluoro-2-methylphenyl)-N-hydroxy-2-(2,2,2-trifluoroethyl)-4,5,6,7-tetrahydro-2H-indazole-5-carboxamide]
IC50 ([1]; Lys-TFA substrate): 0.77 µM
IC50 [2]: > 50 µM

SMILES: Cc1c(F)cccc1[C@@]1(C(=O)NO)Cc2cnc(C3CC3)nc2C1 [Example 50, (R)-2-Cyclopropyl-6-(3-fluoro-2-methylphenyl)-N-hydroxy-6,7-dihydro-5H-cyclopenta[d]pyrimidine-6-carboxamide]
IC50 [1, 3]: 0.12 µM
IC50 [2]: > 50 µM

SMILES: Cc1c(F)cccc1[C@@]1(C(=O)NO)CCc2nc(C3CC3)ncc21 [Example 51, (S)-2-cyclopropyl-5-(3-fluoro-2-methylphenyl)-N-hydroxy-6,7-dihydro-5H-cyclopenta[d]pyrimidine-5-carboxamide]
IC50 [1, 3]: 1.4 µM
IC50 [2]: > 50 µM

SMILES: Cc1c(F)cccc1[C@]1(C(=O)NO)Cc2cnc(C3CC3)nc2C1 [Example 52, (S)-2-Cyclopropyl-6-(3-fluoro-2-methylphenyl)-N-hydroxy-6,7-dihydro-5H-cyclopenta[d]pyrimidine-6-carboxamide]
IC50 [1, 3]: 0.21 µM
IC50 [2]: > 50 µM

SMILES: Cc1c(F)cccc1[C@]1(C(=O)NO)CCc2c1cnn2-c1ccccc1 [Example 54, (R)-4-(3-Fluoro-2-methylphenyl)-N-hydroxy-1-phenyl-1,4,5,6-tetrahydrocyclopenta[c]pyrazole-4-carboxamide]
IC50 [1, 3]: 0.32 µM
IC50 [2]: > 50 µM

SMILES: Cc1c(F)cccc1[C@]1(C(=O)NO)Cc2cnc(-c3ccc(F)cc3)nc2C1 [Example 55, (S)-6-(3-Fluoro-2-methylphenyl)-2-(4-fluorophenyl)-N-hydroxy-6,7-dihydro-5H-cyclopenta[d]pyrimidine-6-carboxamide]
IC50 [1, 3]: 0.26 µM
IC50 [2]: > 50 µM

SMILES: Cc1c(F)cccc1[C@]1(C(=O)NO)Cc2cnc(-c3cccnc3)nc2C1 [Example 60, (S)-6-(3-Fluoro-2-methylphenyl)-N-hydroxy-2-(pyridin-3-yl)-6,7-dihydro-5H-cyclopenta[d]pyrimidine-6-carboxamide]
IC50 [1, 3]: 0.2 µM
IC50 [2]: > 50 µM

SMILES: Cc1c(F)cccc1[C@@]1(C(=O)NO)Cc2nc(-c3ccc(F)cc3)sc2C1 [Example 66, (R)-5-(3-Fluoro-2-methylphenyl)-2-(4-fluorophenyl)-N-hydroxy-5,6-dihydro-4H-cyclopenta[d]thiazole-5-carboxamide]
IC50 [1, 3]: 0.098 µM
IC50 [2]: > 50 µM

SMILES: Cc1c(F)cccc1[C@]1(C(=O)NO)Cc2nc(-c3ccc(F)cc3)sc2C1 [Example 67, (S)-5-(3-fluoro-2-methylphenyl)-2-(4-fluorophenyl)-N-hydroxy-5,6-dihydro-4H-cyclopenta[d]thiazole-5-carboxamide]
IC50 [1, 3]: 0.29 µM
IC50 [2]: > 50 µM

SMILES: Cc1c(F)cccc1[C@]1(C(=O)NO)CCc2nc(C3CC3)sc21 [Example 72, (S)-2-Cyclopropyl-6-(3-fluoro-2-methylphenyl)-N-hydroxy-5,6-dihydro-4H-cyclopenta[d]thiazole-6-carboxamide]
IC50 [1, 3]: 0.79 µM
IC50 [2]: > 50 µM

SMILES: Cc1c(F)cccc1[C@]1(C(=O)NO)Cc2snc(-c3ccccc3)c2C1 [Example 80, E1-(abs)-5-(3-Fluoro-2-methylphenyl)-N-hydroxy-3-phenyl-5,6-dihydro-4H-cyclopenta[d]isothiazole-5-carboxamide]
IC50 [1, 3]: 0.045 µM
IC50 [2]: > 50 µM

SMILES: Cc1c(F)cccc1[C@@]1(C(=O)NO)Cc2snc(-c3ccccc3)c2C1 [Example 81, E2-(abs)-5-(3-Fluoro-2-methylphenyl)-N-hydroxy-3-phenyl-5,6-dihydro-4H-cyclopenta[d]isothiazole-5-carboxamide]
IC50 [1, 3]: 5.6 µM
IC50 [2]: > 50 µM

SMILES: O=C(NO)[C@]1(c2ccccc2)CCc2ccccc21 [Example 87, E1-(abs)-N-Hydroxy-1-phenyl-2,3-dihydro-1H-indene-1-carboxamide]
IC50 [1, 3]: 45.7 µM
IC50 [2]: > 50 µM

Next, values leading:

IC50 ([1]; Lys-TFA substrate): 0.41 µM
IC50 [2]: > 50 µM
SMILES: Cc1c(F)cccc1C1(C(=O)NO)CCc2nn(-c3ccccc3F)cc2C1 (single isomer, unassigned) [Example 33, E1-(abs)-5-(3-Fluoro-2-methylphenyl)-2-(2-fluorophenyl)-N-hydroxy-4,5,6,7-tetrahydro-2H-indazole-5-carboxamide]

IC50 ([1]; Lys-TFA substrate): 26.7 µM
IC50 [2]: > 50 µM
SMILES: Cc1c(F)cccc1C1(C(=O)NO)CCc2nn(-c3ccccc3F)cc2C1 (single isomer, unassigned) [Example 34, E2-(abs)-5-(3-fluoro-2-methylphenyl)-2-(2-fluorophenyl)-N-hydroxy-4,5,6,7-tetrahydro-2H-indazole-5-carboxamide]

IC50 ([1]; Lys-TFA substrate): 0.086 µM
IC50 [2]: > 50 µM
SMILES: Cc1ccccc1-n1ncc2c1CCC(C(=O)NO)(c1cccc(F)c1C)C2 (single isomer, unassigned) [Example 37, E1-(abs)-5-(3-Fluoro-2-methylphenyl)-N-hydroxy-1-(o-tolyl)-4,5,6,7-tetrahydro-1H-indazole-5-carboxamide]

IC50 ([1]; Lys-TFA substrate): 11.2 µM
IC50 [2]: > 50 µM
SMILES: Cc1ccccc1-n1ncc2c1CCC(C(=O)NO)(c1cccc(F)c1C)C2 (single isomer, unassigned) [Example 38, E2-(abs)-5-(3-fluoro-2-methylphenyl)-N-hydroxy-1-(o-tolyl)-4,5,6,7-tetrahydro-1H-indazole-5-carboxamide]

IC50 [1, 3]: > 50 µM
IC50 [2]: > 50 µM
SMILES: Cc1c(F)cccc1[C@@]1(C(=O)NO)CCc2nc(C3CC3)ncc21 (single isomer, unassigned) [Example 57]

IC50 [1, 3]: 0.11 µM
IC50 [2]: > 50 µM
SMILES: Cc1c(F)cccc1C1(C(=O)NO)Cc2nc(-c3cccc(F)c3)sc2C1 (single isomer, unassigned) [Example 64, E1-(abs)-5-(3-Fluoro-2-methylphenyl)-2-(3-fluorophenyl)-N-hydroxy-5,6-dihydro-4H-cyclopenta[d]thiazole-5-carboxamide]

IC50 [2]: > 50 µM
SMILES: Cc1c(F)cccc1C1(C(=O)NO)Cc2nc(-c3cccc(F)c3)sc2C1 (single isomer, unassigned) [Example 65, E2-(abs)-5-(3-fluoro-2-methylphenyl)-2-(3-fluorophenyl)-N-hydroxy-5,6-dihydro-4H-cyclopenta[d]thiazole-5-carboxamide]

IC50 [1, 3]: 0.014 µM
IC50 [2]: > 50 µM
SMILES: Cc1ccccc1-n1ncc2c1C[C@](C(=O)NO)(c1cccc(F)c1C)C2 [Example 2, (S)-5-(3-Fluoro-2-methylphenyl)-N-hydroxy-1-(o-tolyl)-1,4,5,6-tetrahydrocyclopenta[c]pyrazole-5-carboxamide]

IC50 [1, 3]: 0.103 µM
IC50 [2]: > 50 µM
SMILES: Cc1c(F)cccc1[C@]1(C(=O)NO)Cc2cnn(-c3ccc(Cl)cc3)c2C1 [Example 8, (S)-1-(4-Chlorophenyl)-5-(3-fluoro-2-methylphenyl)-N-hydroxy-1,4,5,6-tetrahydrocyclopenta[c]pyrazole-5-carboxamide]

IC50 [1, 3]: 0.027 µM
IC50 [2]: > 50 µM
SMILES: Cc1c(F)cccc1[C@]1(C(=O)NO)Cc2cnn(-c3c(F)cccc3F)c2C1 [Example 11, (S)-1-(2,6-Difluorophenyl)-5-(3-fluoro-2-methylphenyl)-N-hydroxy-1,4,5,6-tetrahydrocyclopenta[c]pyrazole-5-carboxamide]
